Results as given in PubChem BioAssay (NCI).
Where “and” joins values, the source holds several entries; their conditions need not be identical. Equal values may be shown once.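 Cultured in 96-well plates, cells were exposed to test compound for 48 hours across five concentrations. GI50: concentration for 50% inhibition of growth. TGI: total growth inhibition.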

Key:
Experiment in all cases: DTP human tumour cell line panel, 48 h
[1] = system: MDA-MB-468 breast
[2] = system: A498 renal
[3] = system: A549 NSCLC
[4] = system: ACHN renal
[5] = system: BT-549 breast
[6] = system: COLO 205 colon
[7] = system: DU-145 prostate
[8] = system: EKVX NSCLC
[9] = system: HCC-2998 colon
[10] = system: HCT-116 colon
[11] = system: HCT-15 colon
[12] = system: HL-60(TB) leukemia
[13] = system: HS 578T breast
[14] = system: IGROV1 ovarian
[15] = system: K-562 leukemia
[16] = system: KM12 colon
[17] = system: LOX IMVI melanoma
[18] = system: M14 melanoma
[19] = system: MALME-3M melanoma
[20] = system: MCF7 breast
[21] = system: MDA-MB-231 breast
[22] = system: MDA-MB-435
[23] = system: MOLT-4 leukemia
[24] = system: NCI-H460 lung
[25] = system: NCI-H522 lung
[26] = system: OVCAR-3 ovarian
[27] = system: OVCAR-4 ovarian
[28] = system: OVCAR-5 ovarian
[29] = system: OVCAR-8 ovarian
[30] = system: PC-3 prostate
[31] = system: RPMI-8226 leukemia
[32] = system: RXF 393 renal
[33] = system: SF-268 CNS
[34] = system: SF-295 CNS
[35] = system: SF-539 CNS
[36] = system: SK-MEL-2 melanoma
[37] = system: SK-MEL-28 melanoma
[38] = system: SK-MEL-5 melanoma
[39] = system: SN12C renal
[40] = system: SNB-19 CNS
[41] = system: SNB-75 CNS
[42] = system: SW-620 colon
[43] = system: T-47D breast
[44] = system: TK-10 renal
[45] = system: U251 CNS
[46] = system: UACC-62 melanoma
[47] = system: UO-31 renal

## C=C1C(=O)O[C@H]2[C@H]1CC/C(COC(=O)NCc1ccccc1OC)=C\CC[C@@]1(C)O[C@@H]21
[1]
  GI50: 0.669 µM
  TGI: 2.8 µM

## COc1c(CCC[P+](c2ccccc2)(c2ccccc2)c2ccccc2)cc2c(c1OC)OCO2
[1]
  GI50: 0.256 µM
  TGI: 1.18 µM

## O=C1OC(=O)C(c2c[nH]c3ccccc23)=C1c1c[nH]c2ccccc12
[1]
  GI50: > 19.3 µM
  TGI: > 25 µM

## CC(C)(C)C[C@H]1NC(C(=O)NCC[C@H](O)CO)[C@H](c2cccc(Cl)c2)[C@@]12C(=O)Nc1cc(Cl)c(F)cc12 (stereo partly drawn)
[1]
  GI50: 12.4 µM
  TGI: 27.3 µM

## C[C@@H](C(=O)Nc1ccc(Cl)cc1)C1CCC(c2ccnc3ccc(F)cc23)CC1 (stereo partly drawn)
[1]
  GI50: 2.7 µM
  TGI: 14.1 µM

## CC1SC(c2c(Cl)cccc2Cl)N(NC(=O)c2[nH]c3ccc(F)cc3c2-c2ccccc2)C1=O (stereo not drawn)
[1]
  GI50: 3.72 µM
  TGI: 29.9 µM

## CCN(CC)c1ccc(C(=C2C=CC(=[N+](CC)Cc3cccc(S(=O)(=O)O)c3)C=C2)c2ccc(N(CC)Cc3cccc(S(=O)(=O)O)c3)cc2)cc1
[1]
  GI50: 2.58 µM
  TGI: 15.9 µM

## N#Cc1cnc2cc(OC[C@H](O)CO)c(NC(=O)CC3CSSC3)cc2c1Nc1ccc(OCc2cccc(F)c2)c(Cl)c1
[1]
  GI50: 0.118 µM
  TGI: 0.363 µM

## Cc1ccc(/C=C2\CN(C(=O)OC(C)(C)C)C/C(=C\c3ccc(C)cc3)C2=O)cc1
[1]
  GI50: 0.0878 µM
  TGI: > 100 µM

## COC(=O)[C@H](Cc1cn(C)cn1)NC(=O)[C@H](Cc1c[nH]c2ccccc12)NC(=O)Nc1cc(C(F)(F)F)cc(C(F)(F)F)c1
[1]
  GI50: > 10 µM
  TGI: > 10 µM

## ClCCn1c(CCl)nc2ccc(Cl)cc21
[1]
  GI50: 1.68 µM
  TGI: 3.42 µM

## COc1cccc(/C=C/C(=O)c2cccc(Nc3nc(Nc4ccccc4)nc(Nc4ccccc4)n3)c2)c1
[1]
  GI50: 2.5 µM
  TGI: 11.3 µM

## CCN1C(=O)N(CC)C2C1NN=c1s/c(=C\c3cccnc3)c(=O)n12 (stereo not drawn)
[1]
  GI50: 0.363 µM
  TGI: > 100 µM

## COC(=O)/C=C/C=C(c1ccccc1)c1ccccc1
[1]
  GI50: 3.47 µM
  TGI: 18.7 µM

## Cc1[c-]onc1C.Cc1[c-]onc1C.[Ag].[Ag].[NH-]S(=O)(=O)c1ccc(N=Nc2cc(N=Nc3ccc(S([NH-])(=O)=O)cc3)c3c(NC(=O)C(Cl)Cl)cccc3c2OC(=O)C(Cl)Cl)cc1
[1]
  GI50: 1.92 µM
  TGI: 8.48 µM

## COC(=O)[C@]12CC[C@@H](C)[C@H](C)[C@@H]1C1=CC[C@@H]3[C@@]4(C)C[C@@H](OC(C)=O)[C@H](O)[C@@](C)(COC(C)=O)[C@@H]4[C@H](O)C[C@@]3(C)[C@]1(C)CC2
[1]
  GI50: 2.33 µM
  TGI: 7.27 µM

## COc1cc(Cl)cc(-c2nn(C(=O)NCCN3CCOCC3)cc2-c2ccncc2)c1
[1]
  GI50: 2 µM
  TGI: 11.5 µM

## CN1CCN(CCc2cccc(C(=O)c3cnn(-c4ccc(F)cc4)c3N)c2)CC1
[1]
  GI50: > 25 µM
  TGI: > 25 µM

## C[C@H](Nc1ncnc2nc[nH]c12)c1cc2cccc(Cl)c2c(=O)n1-c1ccccc1
[1]
  GI50: 1.55 µM
  TGI: 22.9 µM

## CNC(=O)n1ccc2cc(Oc3ccnc(NC(=O)c4ccc(C5CCN(CCO)CC5)cc4)c3)c(OCCOC)cc21
[1]
  GI50: 1.99 µM
  TGI: 4.22 µM

## COc1ccc(C(=O)/C=C/c2ccc(/C=C/c3cc(OC)c(OC)c(OC)c3)cc2)cc1
[1]
  GI50: 3.39 µM
  TGI: 48.7 µM

## CNC(=O)c1cncc(/C=C/c2ccccc2C)c1
[1]
  GI50: > 25 µM
  TGI: > 25 µM

## CCN(CC)S(=O)(=O)c1ccc(OC)c(Nc2ncc(-c3ccccc3)o2)c1
[1]
  GI50: > 10.4 µM
  TGI: > 25 µM

## Cc1c(C(=O)/C=C/c2csc3ccccc23)[n+](=O)c2ccccc2n1[O-]
[1]
  GI50: 1.71 µM
  TGI: 3.6 µM

## CCN(Cc1ccc(F)c(F)c1)c1ccc(CO)c(Cl)c1
[1]
  GI50: 0.0162 µM
  TGI: 0.0438 µM

## CC(C)NC[C@@H](C(=O)N1CCN(c2ncnc3c2[C@H](C)C[C@H]3O)CC1)c1ccc(Cl)cc1
[1]
  GI50: 0.112 µM and 0.134 µM
  TGI: 0.582 µM and 2.19 µM

## O=S(=O)(NC1CC2CCC1C2)c1ccc2c(c1)C(=NO)c1cc(S(=O)(=O)NC3CC4CCC3C4)ccc1-2 (stereo not drawn)
[1]
  GI50: 0.327 µM
  TGI: 1.09 µM

## Cc1ccc2c(ccc3c[n+]4c5ccccc5ccc4n32)c1
[1]
  GI50: 0.541 µM
  TGI: 2.47 µM

## C=CCc1c2c(c(OC)c3ccoc13)C(=O)/C(=C/c1ccccc1OC)O2
[1]
  GI50: 2.46 µM
  TGI: 7.85 µM

## CCCCCn1c(=N)n(CC(O)COc2cccc(C)c2)c2ccccc21 (stereo not drawn)
[1]
  GI50: 2.38 µM
  TGI: 5.29 µM

## COC1(C(=O)N[C@@H](C)c2ccc(-n3cc(F)cn3)nc2)CCC(c2nc(C)cc(Nc3cc(C)[nH]n3)n2)CC1 (stereo partly drawn)
[1]
  GI50: 1.98 µM
  TGI: 6.96 µM

## COc1cc(C2c3cc4c(cc3OC(N3CCCC3)C2C)OCO4)cc(OC)c1OC (stereo not drawn)
[1]
  GI50: 0.416 µM
  TGI: 54.8 µM

## O=C(CCCCCCNC(=O)C(O)(O)C(F)(F)F)Nc1ccc(-c2ccccc2)cc1
[1]
  GI50: 0.861 µM
  TGI: 3.1 µM

## COc1ccc2c(c1)O/C(=C\c1cccc(OCC(=O)Nc3nc4c(s3)CCCC4)c1)C2=O
[1]
  GI50: 1.71 µM
  TGI: 48.4 µM

## O=CNc1c(Cl)cc2c(c1Cl)Cc1cc([N+](=O)[O-])ccc1-2
[1]
  GI50: 0.317 µM
  TGI: 1.27 µM

## COC[C@@H](CC(C)C)N=C1NC(=O)/C(=C/c2ccc3ncsc3c2)N1
[2]
  GI50: 1.93 µM
  TGI: 7.93 µM
[3]
  GI50: 2.03 µM
  TGI: > 100 µM
[4]
  GI50: 2.46 µM
  TGI: 11.4 µM
[5]
  GI50: 1.56 µM
  TGI: 7.59 µM
[6]
  GI50: 1.94 µM
  TGI: 6.28 µM
[7]
  GI50: 3.06 µM
  TGI: > 100 µM
[8]
  GI50: 3.27 µM
  TGI: 75.8 µM
[9]
  GI50: 4.03 µM
  TGI: 56.4 µM
[10]
  GI50: 1.45 µM
  TGI: 66.4 µM
[11]
  GI50: 2.66 µM
  TGI: > 100 µM
[12]
  GI50: 3.11 µM
  TGI: 8.36 µM
[13]
  GI50: 2.26 µM
  TGI: 8.33 µM
[14]
  GI50: 2.42 µM
  TGI: 22 µM
[15]
  GI50: 2.8 µM
  TGI: > 100 µM
[16]
  GI50: 3.19 µM
  TGI: 34.5 µM
[17]
  GI50: 2.57 µM
  TGI: > 100 µM
[18]
  GI50: 3.88 µM
  TGI: 22 µM
[19]
  GI50: 2.53 µM
  TGI: 7.29 µM
[20]
  GI50: 2.64 µM
  TGI: > 100 µM
[21]
  GI50: 3.65 µM
  TGI: > 100 µM
[22]
  GI50: 3.56 µM
  TGI: 18.7 µM
[1]
  GI50: 1.98 µM
  TGI: 10.8 µM
[23]
  GI50: 2.68 µM
  TGI: 15.4 µM
[24]
  GI50: 3.08 µM
  TGI: > 100 µM
[25]
  GI50: 1.16 µM
  TGI: 4.89 µM
[26]
  GI50: 1.22 µM
  TGI: 4.32 µM
[27]
  GI50: 6.14 µM
  TGI: 79.3 µM
[28]
  GI50: 3.04 µM
  TGI: > 100 µM
[29]
  GI50: 2.88 µM
  TGI: > 100 µM
[30]
  GI50: 3.9 µM
  TGI: 52.7 µM
[31]
  GI50: 2.8 µM
  TGI: 9.52 µM
[32]
  GI50: 1.91 µM
  TGI: 4.96 µM
[33]
  GI50: 3.41 µM
  TGI: 19 µM
[34]
  GI50: 3.46 µM
  TGI: > 100 µM
[35]
  GI50: 1.04 µM
  TGI: 4.54 µM
[36]
  GI50: 1.88 µM
  TGI: 4.32 µM
[37]
  GI50: 2.69 µM
  TGI: 8.69 µM
[38]
  GI50: 2.8 µM
  TGI: 8.85 µM
[39]
  GI50: 2.71 µM
  TGI: 30 µM
[40]
  GI50: 1.76 µM
  TGI: 48.3 µM
[41]
  GI50: 1.04 µM
  TGI: 6.75 µM
[42]
  GI50: 2.14 µM
  TGI: 20 µM
[43]
  GI50: 1.96 µM
  TGI: 9.01 µM
[44]
  GI50: 2.95 µM
  TGI: > 100 µM
[45]
  GI50: 2.58 µM
  TGI: > 100 µM
[46]
  GI50: 2.19 µM
  TGI: 8.63 µM
[47]
  GI50: 2.36 µM
  TGI: 6.7 µM

## COC(=O)[C@@H](C)C[C@H](Cc1ccccc1)NC(=O)c1nc([C@@H](C[C@H](C(C)C)N(C)C(=O)[C@@H](NC(=O)[C@H]2CCCCN2C)C(C)C)OC(C)=O)sc1C
[1]
  GI50: < 0.00167 µM
  TGI: > 16.7 µM

## Nc1c(C(=O)Nc2cccc([N+](=O)[O-])c2)sc2nc3c(cc12)C(O)CCC3 (stereo not drawn)
[1]
  GI50: 2.11 µM
  TGI: > 100 µM
